ChEMBL document CHEMBL4706752 (ACS Med Chem Lett, 2021)

What was measured:
[1] = Protein binding in human serum assessed as fraction unbound; assay type: ADME, cell-free; conditions: read-out: PB
[2] = Protein binding in mouse serum assessed as fraction unbound; assay type: ADME, cell-free; conditions: read-out: PB
[3] = Half life in Balb/c mouse at 2 mg/kg, iv; assay type: ADME, organism-based; conditions: in vivo
[4] = Tmax in Balb/c mouse at 4 mg/kg, po; assay type: ADME, organism-based; conditions: in vivo
[5] = Cmax in dog at 2 mg/kg, po; assay type: ADME, organism-based, Canis lupus familiaris; set-up: route oral, dose 2 mg/kg; conditions: in vivo
[6] = Oral bioavailability in Balb/c mouse at 4 mg/kg; assay type: ADME, organism-based; conditions: in vivo
[7] = Oral bioavailability in cynomolgus monkey at 2 mg/kg; assay type: ADME, organism-based, Macaca fascicularis; conditions: in vivo
[8] = Decrease in IL-17a gene expression in C57BL/6 mouse model of IL-23 induced acanthosis model of psoriasis at 5 mg/kg, po BID for 10 days by RT-PCR analysis; assay type: functional; conditions: C57BL/6, po, 240 h, time 10 day
[9] = Decrease in IL-6 gene expression in C57BL/6 mouse model of IL-23 induced acanthosis model of psoriasis at 10 mg/kg, po BID for 10 days by RT-PCR analysis; assay type: functional; conditions: C57BL/6, po, 240 h, time 10 day
[10] = Decrease in IL-6 gene expression in C57BL/6 mouse model of IL-23 induced acanthosis model of psoriasis at 20 mg/kg, po BID for 10 days by RT-PCR analysis; assay type: functional; conditions: C57BL/6, po, 240 h, time 10 day
[11] = Decrease in LCN2 gene expression in C57BL/6 mouse model of IL-23 induced acanthosis model of psoriasis at 5 mg/kg, po BID for 10 days by RT-PCR analysis; assay type: functional; conditions: C57BL/6, po, 240 h, time 10 day
[12] = test system: Mus musculus; test: Antiinflammatory activity in DBA/1J mouse model of collagen-induced arthritis assessed as reduction in clinical score at 5 mg/kg, po dosed twice daily for 21 days measured on day 51; assay type: functional; conditions: 504 h, time 21 day
[13] = test system: Mus musculus; test: Antiinflammatory activity in DBA/1J mouse model of collagen-induced arthritis assessed as reduction in histological score at 5 mg/kg, po dosed twice daily for 21 days; assay type: functional; conditions: 504 h, time 21 day
[14] = test system: Mus musculus; test: Antiinflammatory activity in DBA/1J mouse model of collagen-induced arthritis assessed as reduction in histological score at 20 mg/kg, po dosed twice daily for 21 days; assay type: functional; conditions: 504 h, time 21 day

In the case of `C[C@@](O)(CS(C)(=O)=O)C(=O)N[C@@H]1CC[C@@]2(S(=O)(=O)c3ccc(F)cc3)c3ccc(C(F)(C(F)(F)F)C(F)(F)F)nc3CC[C@@H]12`, the fraction unbound [1] is reported as 0.022, the fraction unbound [2] is reported as 0.015 and the half-life [3] is reported as 11 h. For the same compound, the Tmax [4] was 2 h, the Cmax [5] was 1700 nM and the bioavailability [6] was 101%. The bioavailability [7] was 73%, the inhibition in vivo at 5 mg/kg [8] was 57.5% and the inhibition in vivo at 10 mg/kg [9] was 82.3%. It also gave an inhibition in vivo at 20 mg/kg [10] of 77.4%, an inhibition in vivo at 5 mg/kg [11] of 62.4% and an inhibition in vivo at 5 mg/kg [12] of 48%. For the same compound, the inhibition in vivo at 5 mg/kg [13] was 59% and the inhibition in vivo at 20 mg/kg [14] was 55%.
